Assay results taken from patent US20100129344A1, “MEDICAL USES AND THERAPIES BASED UPON THE ACTION OF AZUROCIDIN ON IGFBP-1” (priority 2005, published 2010).
“Also recorded” adds a separate entry of the source. Like-named read-outs stand apart in the source and are kept apart here. Where a SMILES comes first, the peptide text is derived from it. [ ]: non-standard residue; d: D form. The star is where a group is joined. Sta = CC(C)C[C@H](N)[C@@H](O)CC(=O)O; Isovaleryl = CC(C)CC(=O)*

Experiments:
[1] = tested on: urinary protease activity at neutral pH (IGFBP-1 proteolysis); experiment: Effect of protease inhibitors, divalent cations and peptides on urinary protease activity at neutral pH (radioiodinated npIGFBP-1, SDS-PAGE, autoradiography); assay type: biochemical, human; conditions: for effect on proteolysis in urine: not shown; for effect of peptides on IGFBP-1 proteolysis: increasing concentrations pre-incubated with npIGFBP-1 30 min 22 C, then 0.5 μl urine 2 h 37 C (FIG. 8A)
Method: A: Effect of 100 μM pepstatin A, 10 μM E64, 2.5 mM leupeptin, 10 mM PMSF, 100 μM aprotinin, 2.5 mM kallikrein inhibitor and benzamidine (mM) and chymostatin (μM). Molecular mass markers are indicated by the arrows. B: Densitometry measurements of intact IGFBP-1. The results are the mean±SEM, pooled from 6-8 experiments. […] The mean effect of urine pooled from all the experiments is shown in the open bar. *, P<0.05; ** P<0.01 (paired t-test);
(§1) Urine, 0.5 μl, was added and the incubation continued for 2 h at 37 C. The fragments were separated by 14% SDS-PAGE and detected by autoradiography. Molecular mass markers are indicated by the arrows. B: Biotinylated recombinant pIGFBP-1 was bound to streptavidin coated plates and then incubated without (open squares) or with 100 ng IGF-I (closed circles) or des(1-3)IGF-I (open circles). Wells were then incubated with increasing concentration of partially purified azurocidin at […] for 2-h at 37 C. After acidification of all wells, including controls, with 1 M HCl to dissociate bound peptides, radioiodinated IGF-I was added for 2 h at 22 C, unbound tracer was removed by washing, and the bound counts determined;
IGFBP-1 was radioiodinated with ^125I using the chloramine T method. After incubation without and with protease in phosphate buffered saline, pH 7 at 37 C, fragments were separated on 14% non-reducing SDS-PAGE, the gel dried, and visualized by autoradiography.

[2] = tested on: acid-activated IGFBP-1 protease activity in human urine; experiment: Effect of pepstatin on urinary IGFBP-1 protease activity at pH 2 (streptavidin plate, IGF-II binding); assay type: biochemical; conditions: pepstatin A 10 μM, pH 2, 5 μl urine, 2 h, 37 C
Method: (§2) A-D: Radioiodinated recombinant npIGFBP-1 was subjected to 14% SDS-PAGEalone (*) or after proteolysis for 2 h at 37 C with 0.5 μl urine or 0.25 μl eluate, and the fragments detected by autoradiography. Molecular mass markers are indicated by the arrows. A: pH-dependence of urinary IGFBP-1 protease activity. B: Urine, flowthrough (FT) from the heparin affinity column, and eluate at pH 2 and 7. C: pHdependence of eluate from heparin affinity chromatography. D: Acid-activated protease activity is destroyed by neutralization. Radioiodinated pIGFBP-1 was incubated without (*) and with 0.5 μl urine for 2 h at 37 C at pH 2. Prior to incubation the urine was either untreated (lane a), adjusted to pH 2 for 15 min (lane B) or adjusted to pH 2 for 15 min and then to pH 7 for a further 15 min (lane C). E: Effect of pepstatin. […] The wells were washed, incubated with radioiodinated IGF-II for 2 h at 22 C, washed, and the bound counts detected;
(§3) IGFBP-1 was biotinylated with sulfo-NHS-LC-LC-biotin and bound to streptavidin coated plates, then incubated without and with protease in phosphate buffered saline, pH 7 at 37 C. After washing, IGF-binding fragments were determined by incubation with radioiodinated IGF-I for 2 h at 22 C. Unbound tracer was removed by washing, and the bound counts determined.

[3] = tested on: neutral IGFBP-1 protease activity in human urine; experiment: Effect of pepstatin on urinary IGFBP-1 protease activity at pH 7 (streptavidin plate, IGF-II binding); assay type: biochemical; conditions: pepstatin A 10 μM, pH 7, 5 μl urine, 2 h, 37 C
Method: as §2, §3

[4] = tested on: MCF-7 human breast cancer cells; experiment: 3H-Thymidine incorporation; assay type: cell-based; conditions: IGF-II 10 ng/ml, 24 h, serum-free; 6 experiments
Method: Cell studies. MCF-7 human breast cancer cells were maintained in MEM alpha ribonucleic acid-free medium supplemented with 10% foetal bovine serum, 50 Unit/ml penicillin sodium, 50 μg/ml streptomycin sulfate and 2 mM L-glutamine at 37C in 5% CO2 humidified environment.
3H-Thymidine incorporation: Experiments were carried out in 48-well plates, at 70% confluence. After a 20-h incubation in serum-free medium supplemented with 0.1% BSA, the experimental conditions were added for a further 24 h, with ^3H-thymidine (1 μCi/ml) added for the last 4 h. Cells were then washed with ice-cold 0.9% NaCl three times and incubated with ice-cold 5% TCA for 15 min at 22 C. The fixed nucleotides were solubilized in 0.1M NaOH at 22 C and subjected to liquid scintillation counting.
Statistical analyses. The effect of IGF-II and IGFBP-1 in muscle cell culture was analyzed by two-way ANOVA. Where significant differences were observed, comparisons were made using the Tukey test. In the study using MCF-7 breast cancer cells the Wolcoxon Matched Pairs test was used. Statistical significance was set at P<0.05.

[5] = tested on: primary human skeletal myotubes; experiment: 2-Deoxyglucose transport (glucose uptake); assay type: cell-based; conditions: IGF-II 10 ng/ml (submaximal), 90 min
Method: Primary human skeletal myotubes were incubated under serum-free conditions for 24 h. Glucose uptake was determined as described in the Methods. The results are the mean±SEM of four experiments using cells from different individuals each with 3 replicates; and are expressed as the percentage of uptake in the absence of IGF-II or IGFBP-1 for each. The effect of IGF-II is shown in the hatched bars. The effect of pIGFBP-1 on stimulation of glucose uptake by 10 ng/ml IGF-II was analyzed by 2-way ANOVA for each of the 20 ng/ml and 80 ng/ml concentrations; *, P<0.01, **, P<0.001, compared to no IGF-II; ††, P<0.001, compared to no IGFBP-1 or intact IGFBP-1. […]
2-Deoxyglucose transport: Glucose uptake was performed as previously described for primary human muscle cells (Bouzakri et al, Diabetologia, 47, 1314-1323, 2004). […] Cells were then washed four times with pre-warmed buffer (150 mmol/l NaCl, […] KCl, 1.2 mmol/l MgSO4, 1.2 mmol/l CaCL2, 2.5 mmol/l NaH2PO4, 10 mmol/l HEPES, pH 7.4) and glucose uptake was measured for 15 min using [3H]2-deoxyglucose (50 μmol/l, 14,800 Bq/well). Results were expressed as the percentage of glucose uptake in the absence of IGF-II or IGFBP-1.
Statistical analyses. The effect of IGF-II and IGFBP-1 in muscle cell culture was analyzed by two-way ANOVA. […]

[6] = tested on: azurocidin-dependent protease activity; experiment: Azurocidin-dependent protease activity on plate-bound biotinylated pIGFBP-1 with pre-bound peptides; assay type: biochemical, human; conditions: 100 ng peptide on plate-bound pIGFBP-1, partially purified azurocidin, 2 h, 37 C (FIG. 8B)
Method: as §1, §3

[7] = 10 mM cation, pH 7, 0.5 μL urine, 2 h, 37 C

For `c1cnc2c(c1)ccc1cccnc12` [1,10-phenothroline], which “effect on the degree of IGFBP-1 degradation” value (shortened to “effect on the degree”) ([1]; data not shown) is on record?
The value was “no effect”.

With `[Ca+2].[Cl-].[Cl-]` [CaCl2] as the molecule, how does the “effect of divalent metal cations on proteolysis (densitometry of intact IGFBP-1)” value (“effect of divalent metal cations” below) [1, 7] read?
Its value is “significant promoting effect”.

How did the “effect of divalent metal cations” value ([1]; pH 7) turn out when `[Cl-].[Cl-].[Co+2]` [CoCl2] was run?
Its value is “inhibited”.

With `[Cl][Cu][Cl]` [CuCl2] as the molecule, how does the “effect of divalent metal cations” value [1, 7] read?
Its value is “inhibited”.

Which “effect on the degree” value [1] does the source give for `O=C(O)CN(CCN(CC(=O)O)CC(=O)O)CC(=O)O` [EDTA] here?
The value was “no effect”.

`O=C(O)CN(CCOCCOCCN(CC(=O)O)CC(=O)O)CC(=O)O` [EGTA] was tested. Which “effect on the degree” value ([1]; data not shown) did it give?
Its value is “no effect”.

How did the “effect of divalent metal cations” value [1, 7] turn out when `[Cl][Ni][Cl]` [NiCl2] was run?
Its value is “inhibited”.

With `O=S(=O)(F)Cc1ccccc1` [PMSF] as the molecule, how does the “effect on protease activity in urine” value ([1]; 10 mM, pH 7, 0.5 μL urine, 2 h, 37 C) read?
The value was “inhibited”.

With `Cc1ccc(S(=O)(=O)N[C@@H](CCCCN)C(=O)CCl)cc1` [TLCK] as the molecule, how does the “effect on proteolysis in urine” value ([1]; concentration not given) read?
Its value is “did not”.

How did the “effect on proteolysis in urine” value ([1]; 1 mM) turn out when `Cc1ccc(S(=O)(=O)N[C@@H](Cc2ccccc2)C(=O)CCl)cc1` [TPCK] was run?
Its value is “inhibited”.

With `CC(C)C[C@H](NC(=O)[C@@H](NC(=O)N[C@@H](Cc1ccccc1)C(=O)O)[C@@H]1CCN=C(N)N1)C(=O)N[C@H](C=O)Cc1ccccc1` [chumostatin] as the molecule, how does the “effect on protease activity in urine” value ([1]; 10 μM, pH 7, 0.5 μL urine, 2 h, 37 C) read?
The value was “inhibited”.

Which “effect on acid-activated urinary IGFBP-1 protease activity” value [2] does the source give for `CC(C)CC(=O)N[C@H](C(=O)N[C@H](C(=O)N[C@@H](CC(C)C)[C@@H](O)CC(=O)N[C@@H](C)C(=O)N[C@@H](CC(C)C)[C@@H](O)CC(=O)O)C(C)C)C(C)C` [pepstatin, pepstatin A] (Isovaleryl-VV[Sta]A[Sta]-OH) here?
The value was “inhibits”.

And the “effect on neutral urinary IGFBP-1 protease activity” value [3]?
Its value is “not the neutral activity”.

Which “effect of peptides on IGFBP-1 proteolysis” value [1] does the source give for “IGF-I: recombinant human insulin-like growth factor I” here?
The value was “Partial inhibition”.

What does the source list for “IGF-II: human insulin-like growth factor II”?
effect of peptides on IGFBP-1 proteolysis [1]: Partial inhibition; stimulation of 3H-thymidine incorporation [4]: 2 fold; stimulation of glucose uptake [5]: more than 2 fold

Which “effect of aprotinin on protease activity (IGFBP-1 proteolysis)” value ([1]; 100 μM aprotinin (FIG. 7A), pH 7, different experiments) does the source give for aprotinin here?
Its value is “either without effect, or even promoted protease activity; also recorded: increasing IGFBP-1 proteolysis”.

Which “effect on protease activity in urine” value ([1]; 100 μM, pH 7, 0.5 μL urine, 2 h, 37 C) does the source give for “cyclohexylacetyl-Phe-Arg-Ser-Val-Gln [kallikrein inhibitor]” here?
Its value is “inhibited”.

Which “effect of peptide on IGFBP-1 proteolysis” value [6] does the source give for “des(1-3)-IGF-I: truncated IGF-I from GroPep” here?
The value was “no effect”.

With insulin as the molecule, how does the “effect of peptides on IGFBP-1 proteolysis” value [1] read?
The value was “no effect”.
